Several values for one entry are separate records, joined by “and”; a condition that tells them apart may be missing. Equal values may be shown once. Inconclusive results and toxic doses are left out. Rule for the calls: active = survival T/C of 150% or more; inactive = T/C below 125% in these data. Peptide text beside a SMILES is read from it. * marks the point of attachment. Cbz = O=C(OCc1ccccc1)*; Bn = c1ccc(C*)cc1
System: P388 leukemia ip, CD2F1 mice, survival T/C
Experiment: NCI In Vivo Anticancer Drug Screen. Data for tumor model P388 Leukemia (intraperitoneal) in CD2F1 (CDF1) mice
Conditions: endpoint: median survival time, higher = longer survival
Method in brief: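 Mice carrying the transplanted tumor received test compound or vehicle. Survival was recorded in each group, and the value is the treated-group measurement divided by that of the vehicle-treated control group.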

[1] = dose: 12.5 mg/kg/injection, schedule: Q01DX005 (ip), vehicle: saline with Tween-80
[2] = dose: 25.0 mg/kg/injection, schedule: Q01DX005 (ip), vehicle: saline with Tween-80
[3] = dose: 50.0 mg/kg/injection, schedule: Q01DX005 (ip), vehicle: saline with Tween-80
[4] = dose: 100.0 mg/kg/injection, schedule: Q01DX005 (ip), vehicle: saline with Tween-80
[5] = dose: 200.0 mg/kg/injection, schedule: Q01DX005 (ip), vehicle: saline with Tween-80
[6] = dose: 50.0 mg/kg/injection, schedule: Q01DX009 (ip), vehicle: Klucel (hydroxypropylcellulose) (HPC)
[7] = dose: 100.0 mg/kg/injection, schedule: Q01DX009 (ip), vehicle: Klucel (hydroxypropylcellulose) (HPC)
[8] = dose: 200.0 mg/kg/injection, schedule: Q01DX009 (ip), vehicle: Klucel (hydroxypropylcellulose) (HPC)
[9] = dose: 50.0 mg/kg/injection, schedule: Q01DX009 (ip), vehicle: saline with Tween-80
[10] = dose: 100.0 mg/kg/injection, schedule: Q01DX009 (ip), vehicle: saline with Tween-80

Measured: T/C

COc1cc2c(cc1OC)[C@@H]1C(=O)c3ccc4c(c3O[C@@H]1CO2)C[C@H](C(C)C)O4
inactive: dose: 6.25 mg/kg/injection, schedule: Q01DX005 (ip), vehicle: Klucel (hydroxypropylcellulose) (HPC) 109 % of control | dose: 12.5 mg/kg/injection, schedule: Q01DX005 (ip), vehicle: Klucel (hydroxypropylcellulose) (HPC) 121 % of control and 123 % of control and 124 % of control | dose: 25.0 mg/kg/injection, schedule: Q01DX005 (ip), vehicle: Klucel (hydroxypropylcellulose) (HPC) 119 % of control

Cn1c(CN(Cc2nc3ccccc3n2C)Cc2nc3ccccc3n2C)nc2ccccc21
inactive: [1] 103 % of control and 98 % of control | [2] 100 % of control and 102 % of control | [3] 103 % of control and 110 % of control

COc1cc2nc3cc([N+](=O)[O-])ccc3c(NCCNCC(C)(C)O)c2cc1OC
inactive: dose: 6.25 mg/kg/injection, schedule: Q01DX005 (ip), vehicle: saline with Tween-80 102 % of control and 105 % of control and 96 % of control | [1] 109 % of control and 115 % of control and 117 % of control | [2] 117 % of control and 118 % of control and 121 % of control

S=c1nc[nH]c2nc(-c3ccccc3)[nH]c12
inactive: dose: 12.5 mg/kg/injection, schedule: Q01DX005 (ip), vehicle: other 101 % of control | dose: 25.0 mg/kg/injection, schedule: Q01DX005 (ip), vehicle: other 100 % of control | dose: 50.0 mg/kg/injection, schedule: Q01DX005 (ip), vehicle: other 101 % of control | dose: 100.0 mg/kg/injection, schedule: Q01DX005 (ip), vehicle: other 92 % of control | dose: 200.0 mg/kg/injection, schedule: Q01DX005 (ip), vehicle: other 92 % of control

O=[N+]([O-])c1ccc2c(c1)nc(-c1ccccn1)n2CCc1ccccn1
inactive: dose: 100.0 mg/kg/injection, schedule: Q04DX003 (ip), vehicle: Klucel (hydroxypropylcellulose) (HPC) 107 % of control | dose: 200.0 mg/kg/injection, schedule: Q04DX003 (ip), vehicle: Klucel (hydroxypropylcellulose) (HPC) 101 % of control | dose: 400.0 mg/kg/injection, schedule: Q04DX003 (ip), vehicle: Klucel (hydroxypropylcellulose) (HPC) 107 % of control

Cc1ccc(-c2c(Br)c(OC(=O)CO[C@@H]3C[C@H](C)CC[C@H]3C(C)C)c(-c3ccc(C)cc3C)c(Br)c2OC(=O)CO[C@H]2C[C@@H](C)CC[C@@H]2C(C)C)c(C)c1
inactive: [3] 95 % of control | [4] 88 % of control | [5] 88 % of control

c1ccc(CNc2nc(NCc3ccccc3)c3cn[nH]c3n2)cc1
inactive: dose: 25.0 mg/kg/injection, schedule: Q01DX009 (ip), vehicle: Klucel (hydroxypropylcellulose) (HPC) 98 % of control | [6] 110 % of control | [7] 103 % of control | [8] 100 % of control

COC(=O)C1=C2Nc3ccccc3C23CCN2C4OC56C7CC4(CN5c4c(OC)cccc4C64CCN5CCC6OCCC6(C7)C54)C4OCCC4(C1)C23 (stereo not given)
inactive: dose: 100.0 mg/kg/injection, schedule: Q04DX002 (ip), vehicle: saline with Tween-80 101 % of control | dose: 200.0 mg/kg/injection, schedule: Q04DX002 (ip), vehicle: saline with Tween-80 101 % of control | dose: 400.0 mg/kg/injection, schedule: Q04DX002 (ip), vehicle: saline with Tween-80 101 % of control

O=C(O)CCNC1=CC(=O)c2ccccc2C1=O
inactive: [6] 102 % of control | [7] 110 % of control

CN(CC(N)=O)C(=O)c1cnc2ccccc2c1
inactive: dose: 60.0 mg/kg/injection, schedule: Q01DX005 (ip), vehicle: saline with Tween-80 98 % of control | dose: 120.0 mg/kg/injection, schedule: Q01DX005 (ip), vehicle: saline with Tween-80 101 % of control | dose: 240.0 mg/kg/injection, schedule: Q01DX005 (ip), vehicle: saline with Tween-80 99 % of control

S=C(Nc1ccccc1)SSC(Cl)(Cl)Cl
inactive: dose: 12.5 mg/kg/injection, schedule: Q01DX009 (ip), vehicle: saline + Tween-80 + alcohol 93 % of control | dose: 25.0 mg/kg/injection, schedule: Q01DX009 (ip), vehicle: saline + Tween-80 + alcohol 94 % of control | dose: 50.0 mg/kg/injection, schedule: Q01DX009 (ip), vehicle: saline + Tween-80 + alcohol 109 % of control | [9] 117 % of control | [10] 114 % of control

N/N=C1/C(=O)N(c2cccc([N+](=O)[O-])c2)C(=O)C1C(=O)Nc1cccc([N+](=O)[O-])c1 (stereo not given)
inactive: dose: 37.5 mg/kg/injection, schedule: Q01DX005 (ip), vehicle: saline with Tween-80 101 % of control | dose: 75.0 mg/kg/injection, schedule: Q01DX005 (ip), vehicle: saline with Tween-80 100 % of control | dose: 150.0 mg/kg/injection, schedule: Q01DX005 (ip), vehicle: saline with Tween-80 105 % of control

CC(=O)NC(CSc1ccccc1)C(=O)O (stereo not given)
inactive: [3] 100 % of control | [4] 100 % of control | [5] 99 % of control

OCCSCc1cnc2ccccn12
inactive: dose: 25.0 mg/kg/injection, schedule: Q01DX009 (ip), vehicle: saline 105 % of control | dose: 50.0 mg/kg/injection, schedule: Q01DX009 (ip), vehicle: saline 100 % of control

COc1ccc(S(=O)(=O)NCCSSCCNS(=O)(=O)c2ccc(OC)cc2)cc1
inactive: [6] 91 % of control | [7] 93 % of control | [8] 94 % of control

CCN(CC)C(=O)C1(C)NS(=O)(=O)c2ccccc2C1=O (stereo not given)
inactive: dose: 25.0 mg/kg/injection, schedule: Q01DX009 (ip), vehicle: saline with Tween-80 106 % of control | [9] 98 % of control and 110 % of control and 96 % of control | [10] 98 % of control and 110 % of control and 97 % of control | dose: 200.0 mg/kg/injection, schedule: Q01DX009 (ip), vehicle: saline with Tween-80 95 % of control

COC(=O)C(CSCc1ccccc1)NC(=O)C(CC(N)=O)NC(=O)OCc1ccccc1 (stereo not drawn) (Cbz-Asn-Cys(Bn)-OMe; configuration not given here)
inactive: dose: 12.5 mg/kg/injection, schedule: Q01DX009 (ip), vehicle: distilled water + Tween-80 88 % of control | dose: 25.0 mg/kg/injection, schedule: Q01DX009 (ip), vehicle: distilled water + Tween-80 88 % of control | dose: 50.0 mg/kg/injection, schedule: Q01DX009 (ip), vehicle: distilled water + Tween-80 91 % of control | dose: 100.0 mg/kg/injection, schedule: Q01DX009 (ip), vehicle: distilled water + Tween-80 92 % of control | dose: 200.0 mg/kg/injection, schedule: Q01DX009 (ip), vehicle: distilled water + Tween-80 103 % of control

COc1cc(N(CCCl)CCCl)ccc1/C=N\NC(=O)c1cccnc1
inactive: dose: 25.0 mg/kg/injection, schedule: Q01DX007 (ip), vehicle: Klucel (hydroxypropylcellulose) (HPC) 95 % of control | dose: 50.0 mg/kg/injection, schedule: Q01DX007 (ip), vehicle: Klucel (hydroxypropylcellulose) (HPC) 108 % of control | dose: 100.0 mg/kg/injection, schedule: Q01DX007 (ip), vehicle: Klucel (hydroxypropylcellulose) (HPC) 100 % of control | dose: 200.0 mg/kg/injection, schedule: Q01DX007 (ip), vehicle: Klucel (hydroxypropylcellulose) (HPC) 101 % of control

O=C1CN(c2cccc(C(F)(F)F)c2)C(=O)CN1/N=C/c1ccco1
inactive: [1] 100 % of control | [2] 105 % of control | [3] 99 % of control and 100 % of control

COc1ccc(NNc2ccc(OC)cc2)cc1
inactive: dose: 50.0 mg/kg/injection, schedule: Q04DX003 (ip), vehicle: saline with Tween-80 100 % of control | dose: 100.0 mg/kg/injection, schedule: Q04DX003 (ip), vehicle: saline with Tween-80 92 % of control | dose: 200.0 mg/kg/injection, schedule: Q04DX003 (ip), vehicle: saline with Tween-80 92 % of control

CCN(CC)CCOC(=O)Cc1cc(C)cc2c(=O)cc(-c3ccccc3)oc12
inactive: dose: 50.0 mg/kg/injection, schedule: Q01DX005 (ip), vehicle: Klucel (hydroxypropylcellulose) (HPC) 97 % of control | dose: 100.0 mg/kg/injection, schedule: Q01DX005 (ip), vehicle: Klucel (hydroxypropylcellulose) (HPC) 102 % of control | dose: 200.0 mg/kg/injection, schedule: Q01DX005 (ip), vehicle: Klucel (hydroxypropylcellulose) (HPC) 101 % of control

Reference: PubChem BioAssay AID330 (DTP/NCI, 2004)
